The values below come from patent publication US7527916B2, “Photopolymerizable composition” (Agfa Graphics, N.V., priority 2003, dated 2009).

This series in a line: Solubility test in methyl ethyl ketone. The conditions noted are these: 1.5 g sensitiser in 100 g methyl ethyl ketone, stirred at room temperature (20° C.) for a maximum of 24 hours. It is filed as physicochemical. The protocol:
Solubility Test in Methyl Ethyl Ketone
1.5 g of the sensitiser is dissolved in 100g of methyl ethyl ketone and allowed to stir at room temperature (20° C.) for a maximum of 24 hours. If the sensitiser is completely dissolved in the methyl ethyl ketone, the sensitiser passes the solubility test and is considered as a preferred sensitiser according to the present invention.

Take `CCC(C)Oc1c(OC)cc(C=Cc2ccc(C=Cc3cc(OC)c(OC(C)CC)c(OC)c3)cc2)cc1OC` (centres unmarked) [(D), 1,4-distyryl-(3,5-trimethoxy, 4-(2-butyl)oxy)benzene]: the “Solubility test MEK (15 g/kg)” value is “OK (If the sensitiser is completely dissolved in the methyl ethyl ketone, the sensitiser passes the solubility test)”. Turning to `CCCCC(CC)COc1c(OC)cc(C=Cc2ccc(C=Cc3cc(OC)c(OCC(CC)CCCC)c(OC)c3)cc2)cc1OC` (centres unmarked) [(F), 1,4-distyryl-(3,5-trimethoxy, 4-(1-(2-ethyl)hexyl)oxy)benzene], the “Solubility test MEK (15 g/kg)” value is “OK (If the sensitiser is completely dissolved in the methyl ethyl ketone, the sensitiser passes the solubility test)”.
